Measured values from patent US10183039B2, “Methods for the production of collagen IV” (Vanderbilt University, priority 2013, dated 2019).

T1: collagen IV NC1 hexamer (Mus musculus, UniProt P02463+P08122)
T1 sequence (P02463 1445-1669 limits assumed): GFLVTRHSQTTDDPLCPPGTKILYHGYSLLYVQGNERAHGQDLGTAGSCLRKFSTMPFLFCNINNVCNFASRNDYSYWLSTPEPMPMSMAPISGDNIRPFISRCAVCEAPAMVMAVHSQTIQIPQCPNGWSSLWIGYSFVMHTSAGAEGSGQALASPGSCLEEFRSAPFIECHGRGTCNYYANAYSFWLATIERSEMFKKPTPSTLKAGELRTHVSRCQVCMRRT
T1 sequence (P08122 1484-1707 limits assumed): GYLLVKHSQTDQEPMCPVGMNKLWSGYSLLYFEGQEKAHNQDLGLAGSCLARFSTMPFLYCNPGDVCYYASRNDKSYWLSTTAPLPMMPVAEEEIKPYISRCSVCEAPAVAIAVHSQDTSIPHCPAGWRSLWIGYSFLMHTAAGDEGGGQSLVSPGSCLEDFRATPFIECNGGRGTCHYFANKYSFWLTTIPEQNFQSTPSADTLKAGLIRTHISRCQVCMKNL

B1: myeloperoxidase: animal heme peroxidase used as comparator (protein, UniProt P05164 165-745, looked up)
Myeloperoxidase: VTCPEQDKYRTITGMCNNRRSPTLGASNRAFVRWLPAEYEDGFSLPYGWTPGVKRNGFPVALARAVSNEIVRFPTDQLTPDQERSLMFMQWGQLLDHDLDFTPEPAARASFVTGVNCETSCVQQPPCFPLKIPPNDPRIKNQADCIPFFRSCPACPGSNITIRNQINALTSFVDASMVYGSEEPLARNLRNMSNQLGLLAVNQRFQDNGRALLPFDNLHDDPCLLTNRSARIPCFLAGDTRSSEMPELTSMHTLLLREHNRLATELKSLNPRWDGERLYQEARKIVGAMVQIITYRDYLPLVLGPTAMRKYLPTYRSYNDSVDPRIANVFTNAFRYGHTLIQPFMFRLDNRYQPMEPNPRVPLSRVFFASWRVVLEGGIDPILRGLMATPAKLNRQNQIAVDEIRERLFEQVMRIGLDLPALNMQRSRDHGLPGYNAWRRFCGLPQPETVGQLGTVLRNLKLARKLMEQYGTPNNIDIWMGGVSEPLKRKGRVGPLLACIIGTQFRKLRDGDRFWWENEGVFSMQQRQALAQISLPRIICDNTGITTVSKNNIFMSNSYPRDFVNCSTLPALNLASWREAS

Columns and labels:
[1] = HOBr versus HOCl, methionine to dehydromethionine; cited from earlier work
collagen IV NC1 hexamer [2] = target: T1, collagen IV NC1 hexamer; test: Hypohalous acid oxidation of purified uncrosslinked NC1 hexamer; details: for crosslinked dimeric subunits (percentage of dimeric subunit): 500 nM NC1 hexamer, 5 μM hypohalous acid, 30 min at 37° C. (FIG. 4A)
Experimental: (FIG. 4A) Five hundred nanomolar collagen IV NC1 hexamer (3 μM potential crosslinks) was incubated alone (control) or with 5 μM hypochlorous (HOCl) or hypobromous acid (HOBr) for 30 min at 37° C. […] (FIGS. 4B-D) 16 nM myeloperoxidase (MPO) (FIG. 4B), eosinophil peroxidase (EPO) (FIG. 4C) or lactoperoxidase (LPO) (FIG. 4D) were reacted with 500 nM NC1 hexamer (3 μM potential crosslinks) for varying time points in 1×PBS with or without 10 μM H2O2. In the case of LPO, all reactions proceeded for 60 min. Collagen IV-sulfilimine crosslink content was visualized after SDS-PAGE and Coomassie blue staining of the reactions. Each gel is representative of three independent experiments. PHG, phloroglucinol; MW, molecular weight.
FIGS. 9A-D. Chemical mechanism of sulfilimine formation within the NC1 hexamer. (FIG. 9A) Purified uncrosslinked NC1 hexamer (5 μM) was reacted for 5 minutes at 37° with the indicated amounts of hypohalous acids and analyzed by SDS-PAGE. […] Values represent mean±S.D. (n=3). (FIG. 7B) Uncrosslinked NC1 hexamer (1.3 μM) in Br-Free PBS was preoxidzed with indicated amounts of HOCl for 1 min at 37 C, followed by post-oxidation with the addition of 8 mol eq. HOBr (or HOCl as a control) which was reacted for an additional minute at 37° C., then quenched with 20 mM methionine. Gel is representative of two experiments (FIG. 9C) XIC analysis of the residual monomeric NC1 subunit following HOCl oxidation (10 mol eq) compared to input NC1 monomer after SDS-PAGE and in-gel trypsin digestion. ^16O addition to the methionine residues was confirmed by MS3 analysis. (FIG. 9D) Met93 oxidation pathway consistent with experimental data and the resultant enthalphic landscape for S═N bond formation within the NC1 hexamer.
(FIG. 15) Fifty micromolar of hypohalous oxidants were added to 5 μM uncrosslinked NC1 domains, and reacted for 5 minutes at 37° C. before quenching by adding L-methionine to 1 mM final concentration. […] Experiments were run in triplicate and analyzed by 12% non-reducing SDS-PAGE and ImageJ.
The efficiency of HOBr as a reagent was compared to other hypohalous acids, during a 5′ reaction with uncrosslinked hexamers containing 5 μM NC1 domains.
The inventors therefore tested the molar efficiency of oxidation of purified uncrosslinked NC1 hexamer with HOCl and HOBr (FIG. 9A). […] To test this, they pretreated uncrosslinked NC1 hexamer with varying concentrations of HOCl, then treated with HOBr. […] As an independent approach to testing the dead-end sulfoxide hypothesis, the inventors pretreated NC1 hexamer with escalating levels of H2O2, a reagent known to generate methionine sulfoxides (Liang et al., 2012). […] They next decided to directly visualize the peptide containing Met93, the S donor of the S═N bond, within the residual monomeric NC1 fraction after HOCl oxidation and compare its oxidation status to untreated NC1 hexamer.

collagen IV NC1 hexamer [3] = test: Purified peroxidases reacted with uncrosslinked NC1 hexamer and H2O2; assay type: biochemical, mouse; details: 16 nM enzyme, 500 nM NC1 hexamer, 10 μM H2O2, 1×PBS
Experimental: (§1) (FIG. 3A) SDS-PAGE of reactions consisting of 16 nM purified human peroxidasin (PXDN), 500 nM monomeric NC1 hexamer (3 μM potential crosslinks) and 10 μM H2O2 in 1×PBS. Control reactions without H2O2 or in the presence of the peroxidase inhibitor phloroglucinol (PHG; 50 μM) were also conducted. D represents crosslinked dimeric NC1 subunits, and M denotes uncrosslinked monomeric subunits. MW, molecular weight. (FIG. 3B) Coomassie blue-stained gel after SDS-PAGE of collagen IVNC1 hexamer is shown to illustrate relative amounts of sulfilimine-crosslinked dimeric (D) and uncrosslinked monomeric (M) subunits after incubation of uncrosslinked PFHR-9 basement membranes in varying buffer halide concentrations (Br— or Cl— as K+ salt) with or without 1 mM H2O2. (FIG. 3C) PXDN-mediated hypohalous acid (HOX) production expressed as nmol hypohalous acid generated per nmol enzyme per min, measured in 1×PBS plus 100 μM NaBr. Values represent mean±s.e.m. (n=3). (FIG. 3D) HOCl production measured directly in 1×PBS without added Br—. Values denote mean±s.e.m. (n=4). […] (FIG. 3E) HOX production, measured in nmol HOX generated per nmol enzyme per min for myeloperoxidase (MPO), eosinophil peroxidase (EPO) or LPO in 1×PBS plus 100 μM NaBr. Values represent mean±s.e.m. (n=3).
PHG, phloroglucinol; MW, molecular weight.
If peroxidasin uses hypohalous acids as intermediates to form sulfilimine bonds, these intermediates should recapitulate the reaction when directly added to purified, uncrosslinked collagen IV NC1 hexamer. […] Alternatively, other peroxidasesis provided to form reactive hypohalous acids.

[4] = Hypohalous acid production by peroxidases (taurine haloamine trapping); assay type: biochemical; details: 1×PBS plus 100 μM NaBr or without added Br—
Experimental: as §1
Hypohalous acids were trapped as stable taurine haloamines, which oxidize tetramethylbenzidine to yield a colorimetric measure of hypohalous acid concentration and production (Dypbukt et al., 2005).
Animal heme peroxidases, such as peroxidasin, myeloperoxidase, eosinophil peroxidase and lactoperoxidase, catalyze oxidative reactions using distinct halogenation and peroxidase cycles (Obinger, 2006). Both begin with hydrogen peroxide oxidation of the prosthetic heme iron to form an intermediate denoted compound I (Obinger, 2006). Compound I may oxidize halides into their respective hypohalous acids (or related oxidants in equilibrium), which may directly or indirectly halogenate susceptible moieties. Alternatively, compound I undergoes sequential reduction to form single electron-free radicals of energetically favorable substrates in the peroxidase cycle. Both pathways eventually regenerate reduced, native enzyme (Obinger, 2006). To determine whether peroxidasin forms sulfilimine bonds using a halogenation cycle, the inventors first tested whether peroxidasin crosslinks collagen IV in the absence of halides.

[5] = Peroxidase activity of media from transfected cells (tetramethylbenzidine colorimetric assay); assay type: biochemical; details: media of transiently transfected HEK293T cells
Experimental: FIGS. 5A-D—Peroxidasin uniquely crosslinks native collagen IV networks. (FIG. 5A) Experimental design of ‘overlay’ experiments. PFHR-9 cells were grown in the presence of phloroglucinol (PHG; 50 μM) to deposit uncrosslinked collagen IV (Col IV) networks. The cells were then removed, and the basement membrane was extracted with 4 M guanidine (Gdn) to inactivate endogenous peroxidasin. Cells stably transfected with human peroxidasin (PXDN) or untransfected HEK293 cells (WT HEK) were plated on top of the PFHR9 basement membrane, which was subsequently analyzed for collagen IV crosslink content. (FIG. 5B) Collagen IV-sulfilimine bond formation in the indicated experimental conditions as shown by stained SDS-PAGE gel. Two (WT HEK cells) or three (PXDN, with or without PHG) out of five independent experiments are shown. MW, molecular weight. (FIG. 5C) Coomassie blue-stained gel of collagen IVNC1 hexamers isolated from uncrosslinked PFHR-9 basement membrane overlaid with HEK293T cells transiently transfected with human peroxidasin cDNA, mouse myeloperoxidase cDNA (MPO), mouse lactoperoxidase cDNA (LPO) or empty vector (Mock). (FIG. 5D) Media from PXDN, MPO, LPO and mock-transfected cells were assayed for peroxidase activity using a tetramethylbenzidine-based colorimetric assay. Activity was expressed relative to peroxidasin (A650 of given peroxidase divided by A650 for peroxidasin). […]

Row | Molecule | effectiveness at forming a sulfilimine bond [1] | crosslinked dimeric subunits (percentage of dimeric subunit) (collagen IV NC1 hexamer [2]) | crosslinked dimeric subunits (percentage of dimeric subunit) (collagen IV NC1 hexamer [2]; listed as hypobromous acid) | dimer formation, molar efficiency of oxidation (collagen IV NC1 hexamer [2]; 5 μM NC1 hexamer, 5 minutes at 37° (FIG. 9A)) | efficiency versus other hypohalous acids in forming sulfilimine bonds (collagen IV NC1 hexamer [2]; 5 min reaction, 5 μM NC1 domains) | S═N bond formation as share of total Met93 oxidized (collagen IV NC1 hexamer [2]; oxidation event 1 (OE1), S—Cl or S—Br halosulfonium intermediate) | formation of sulfilimine crosslinks in NC1 hexamer (collagen IV NC1 hexamer [3]) | hypohalous acid formation [4] | enzymatic activity relative to peroxidasin [5]
1 | OBr [HOBr, hypobromous acid] | approximately twice as effective as HOCl | increased significantly | yielded crosslinked dimeric subunits | efficiently formed dimers even at parity with NC1 concentrations | superior to all other examined reagents | 56.1% | – | – | –
2 | B1 | – | – | – | – | – | – | formed sulfilimine crosslinks in collagen IV | preferentially formed hypochlorous acid | at least 30 fold
